Experimental findings from patent US20250098679A1, “HERBICIDAL PYRIDONE DERIVATIVES” (SYNGENTA CROP PROTECTION AG, priority 2021, published 2025) are described below.

Format in all cases: in vivo
Holding throughout (settings): evaluated after 13 days

Experiment [1] relates to Setaria faberi (SETFA). The experiment in a line: Pre-emergence Test, Setaria faberi (SETFA).
Experiment [2] concerns Echinochloa crus-galli (ECHCG). Nature of the experiment: Pre-emergence Test, Echinochloa crus-galli (ECHCG).
Experiment [3] deals with Zea mays (ZEAMX). The experiment in a line: Pre-emergence Test, Zea mays (ZEAMX).
In experiment [4] the test system is Ipomoea hederacea (IPOHE). Nature of the experiment: Pre-emergence Test, Ipomoea hederacea (IPOHE).
For experiment [5], the system named is Amaranthus palmeri (AMAPA). Nature of the experiment: Pre-emergence Test, Amaranthus palmeri (AMAPA).
The test system of experiment [6] is Amaranthus retoflexus (AMARE). The experiment in a line: Pre-emergence Test, Amaranthus retoflexus (AMARE).
For experiment [7], the system named is Setaria faberi (SETFA). The experiment in a line: Post-emergence Test, Setaria faberi (SETFA). On the set-up: key to percentage damage caused to the plant, SETFA (five-point scale): 5=81-100%, 4=61-80%, 3=41-60%, 2=21-40%, 1=0-20% damage. In outline: (§1)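 Scores are percentage plant damage on a 1–5 scale (1=0-20%, 2=21-40%, 3=41-60%, 4=61-80%, 5=81-100%), read 13 days after treatment. Pots received a spray at 1000 g/ha unless otherwise stated, formulated in acetone/water (50:50) containing 0.5% Tween 20.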

Experiment [8] deals with Echinochloa crus-galli (ECHCG). Nature of the experiment: Post-emergence Test, Echinochloa crus-galli (ECHCG). On the set-up: key to percentage damage caused to the plant, ECHCG (five-point scale): 5=81-100%, 4=61-80%, 3=41-60%, 2=21-40%, 1=0-20% damage. In outline: as §1
Experiment [9] has as its system Zea mays (ZEAMX). The experiment in a line: Post-emergence Test, Zea mays (ZEAMX). On the set-up: key to percentage damage caused to the plant, ZEAMX (five-point scale): 5=81-100%, 4=61-80%, 3=41-60%, 2=21-40%, 1=0-20% damage. In outline:
as §1

For experiment [10], the system named is Ipomoea hederacea (IPOHE). The experiment in a line: Post-emergence Test, Ipomoea hederacea (IPOHE). On the set-up: key to percentage damage caused to the plant, IPOHE (five-point scale): 5=81-100%, 4=61-80%, 3=41-60%, 2=21-40%, 1=0-20% damage. In outline:
as §1

Experiment [11] deals with Amaranthus palmeri (AMAPA). Nature of the experiment: Post-emergence Test, Amaranthus palmeri (AMAPA). On the set-up: key: 5=81-100%, 4=61-80%, 3=41-60%, 2=21-40%, 1=0-20% damage. In outline: as §1
In experiment [12] the test system is Amaranthus retoflexus (AMARE). The experiment in a line: Post-emergence Test, Amaranthus retoflexus (AMARE). Also on record: key to percentage damage caused to the plant, AMARE (five-point scale): 5=81-100%, 4=61-80%, 3=41-60%, 2=21-40%, 1=0-20% damage. In outline: as §1

As to `CCn1c(Cn2ncc3cnc(Cl)cc32)cc(=O)c(C(=O)O)c1-c1ccc(Cl)c(Cl)c1` [Compound 75, 6-[(6-chloropyrazolo[4,3-c]pyridin-1-yl)methyl]-2-(3,4-dichlorophenyl)-1-ethyl-4-oxo-pyridine-3-carboxylic acid], the “Pre-emergence Test SETFA, percentage damage caused to the plant (five-point scale)” value in [1] (250 g/Ha (*)) is given as 1 (1=0-20%). For the same molecule, in [2] (250 g/Ha (*)), the “Pre-emergence Test ECHCG, percentage damage caused to the plant (five-point scale)” value is listed as 1 (1=0-20%). Further, in [3] (250 g/Ha (*)), the “Pre-emergence Test ZEAMX, percentage damage caused to the plant (five-point scale)” value is 0. Further, the “Pre-emergence Test IPOHE, percentage damage caused to the plant (five-point scale)” value in experiment [4] (250 g/Ha (*)) was 0. Further, the “Pre-emergence Test AMAPA, percentage damage caused to the plant (five-point scale)” value in [5] (250 g/Ha (*)) is given as 1 (1=0-20%). The “Pre-emergence Test AMARE, percentage damage caused to the plant (five-point scale)” value in experiment [6] (250 g/Ha (*)) was 1 (1=0-20%). Besides, the “percentage damage caused to the plant, SETFA (five-point scale)” value in experiment [7] (250 g/Ha) is on record as 0. In addition, the “percentage damage caused to the plant, ECHCG (five-point scale)” value in experiment [8] (250 g/Ha) was 1 (1=0-20%). Also, the “percentage damage caused to the plant, ZEAMX (five-point scale)” value in experiment [9] (250 g/Ha) is reported as 0. Besides, the “percentage damage caused to the plant, IPOHE (five-point scale)” value in experiment [10] (250 g/Ha) turned out to be 0. The “percentage damage caused to the plant, AMAPA (five-point scale)” value in experiment [11] (250 g/Ha) is 1 (1=0-20%). Further, the “percentage damage caused to the plant, AMARE (five-point scale)” value in experiment [12] (250 g/Ha) is on record as 1 (1=0-20%).

Consider `CCn1c(Cn2ccc(I)n2)cc(=O)c(C(=O)O)c1-c1ccc(Cl)c(Cl)c1` [Compound 78, 2-(3,4-dichlorophenyl)-1-ethyl-6-[(3-iodopyrazol-1-yl)methyl]-4-oxo-pyridine-3-carboxylic acid], for which the “Pre-emergence Test SETFA, percentage damage caused to the plant (five-point scale)” value in experiment [1] (250 g/Ha (*)) and in experiment [1] (1000 g/ha) was 5 (5=81-100%) in each case. The “Pre-emergence Test ECHCG, percentage damage caused to the plant (five-point scale)” value in experiment [2] (250 g/Ha (*)) and in experiment [2] (1000 g/ha) was 5 (5=81-100%) throughout. For the same molecule, the “Pre-emergence Test ZEAMX, percentage damage caused to the plant (five-point scale)” value in experiment [3] (250 g/Ha (*)) is 4 (4=61-80%); in experiment [3] (1000 g/ha), 3 (3=41-60%). For the same molecule, the “Pre-emergence Test IPOHE, percentage damage caused to the plant (five-point scale)” value in experiment [4] (250 g/Ha (*)) and in [4] (1000 g/ha) was 4 (4=61-80%) each time. Also, the “Pre-emergence Test AMAPA, percentage damage caused to the plant (five-point scale)” value in experiment [5] (250 g/Ha (*)) is listed as 3 (3=41-60%); in experiment [5] (1000 g/ha), 2 (2=21-40%). The “Pre-emergence Test AMARE, percentage damage caused to the plant (five-point scale)” value in experiment [6] (250 g/Ha (*)) and in experiment [6] (1000 g/ha) was 2 (2=21-40%) throughout. Further, the “percentage damage caused to the plant, SETFA (five-point scale)” value in experiment [7] (250 g/Ha) and in experiment [7] (1000 g/ha) was 4 (4=61-80%) in each case. The entries for the “percentage damage caused to the plant, ECHCG (five-point scale)” value in [8] (250 g/Ha) and in experiment [8] (1000 g/ha) were 3 (3=41-60%) and 4 (4=61-80%), respectively. The “percentage damage caused to the plant, ZEAMX (five-point scale)” value in [9] (250 g/Ha) is listed as 1 (1=0-20%); in experiment [9] (1000 g/ha) it was 3 (3=41-60%). The “percentage damage caused to the plant, IPOHE (five-point scale)” value in experiment [10] (250 g/Ha) and in experiment [10] (1000 g/ha) was 4 (4=61-80%) in each case. Besides, the “percentage damage caused to the plant, AMAPA (five-point scale)” value in [11] (250 g/Ha) and in [11] (1000 g/ha) was 2 (2=21-40%) in each case. The “percentage damage caused to the plant, AMARE (five-point scale)” value in experiment [12] (250 g/Ha) is given as 1 (1=0-20%); in experiment [12] (1000 g/ha), 3 (3=41-60%).

On to `CCn1c(Cn2cncc2Cl)cc(=O)c(C(=O)O)c1-c1ccc(Cl)c(Cl)c1` [Compound 79, 6-[(5-chloroimidazol-1-yl)methyl]-2-(3,4-dichlorophenyl)-1-ethyl-4-oxo-pyridine-3-carboxylic acid], for which the “Pre-emergence Test SETFA, percentage damage caused to the plant (five-point scale)” value in [1] (250 g/Ha (*)) is listed as 1 (1=0-20%). Further, the “Pre-emergence Test ECHCG, percentage damage caused to the plant (five-point scale)” value in experiment [2] (250 g/Ha (*)) is on record as 1 (1=0-20%). Besides, the “Pre-emergence Test ZEAMX, percentage damage caused to the plant (five-point scale)” value in experiment [3] (250 g/Ha (*)) was 0. Further, the “Pre-emergence Test IPOHE, percentage damage caused to the plant (five-point scale)” value in experiment [4] (250 g/Ha (*)) came to 0. Further, in [5] (250 g/Ha (*)), the “Pre-emergence Test AMAPA, percentage damage caused to the plant (five-point scale)” value is 1 (1=0-20%). The “Pre-emergence Test AMARE, percentage damage caused to the plant (five-point scale)” value in [6] (250 g/Ha (*)) is listed as 0. Moreover, the “percentage damage caused to the plant, SETFA (five-point scale)” value in [7] (250 g/Ha) is reported as 0. In experiment [8] (250 g/Ha), the “percentage damage caused to the plant, ECHCG (five-point scale)” value was 1 (1=0-20%). In addition, in experiment [9] (250 g/Ha), the “percentage damage caused to the plant, ZEAMX (five-point scale)” value is recorded as 1 (1=0-20%). The “percentage damage caused to the plant, IPOHE (five-point scale)” value in experiment [10] (250 g/Ha) is on record as 1 (1=0-20%). Besides, the “percentage damage caused to the plant, AMAPA (five-point scale)” value in experiment [11] (250 g/Ha) is on record as 0. Also, the “percentage damage caused to the plant, AMARE (five-point scale)” value in [12] (250 g/Ha) was 1 (1=0-20%).
